In brackets after ≈: the same amount, converted by molar mass. Like-named read-outs stand apart in the source and are kept apart here.
Assay: Solubility in methylene chloride (standard method for ascertaining lipophilicity)
Format: physicochemical
From the text: Throughout the present application many CPT compounds have been defined with a substituent X as shown in structure I or II where X is defined and many substituents are shown. With the exception of the simple substituents where R is C1-5 alkyl (which can be prepared by the method of Sawada et al. (Chem. Pharm. Bull. 39, 2574-2580 ([…]))), the other compounds recited herein can not be made by conventional methods, but require, to the best of the inventors' knowledge, the use of the method of the present invention. Using the method of Sawada et al, the yield of alkyl became progressively lower essentially terminating where R is C5 alkyl. All other R substituents shown herein can be made only by the present method involving Grignard reactions, especially analogs like 7-t-butyl-10,11-methylenedioxy-CPT, 7-trimethylsilylmethyl-10,11-methylenedioxy-CPT, 7-naphthylmethyl-10,11-methylenedioxy-CPT, 7-p-fluorophenyl-10,11-methylenedioxy-CPT, 7-p-trifluoromethyl-10,11-methylenedioxy-CPT, and 7-p-tolyl-10,11-methylenedioxy-CPT. A number of compounds made by this method have shown unusual properties. For example, Table 1 gives the methylene chloride solubility of a number of compounds which are made by the methods described by this patent. For example, 7-butyl-10-aminocamptothecin made by this procedure is remarkably lipophilic. 10-Aminocamptothecin has a solubility of —0.2 mg/ml. […] It has been found by several groups that lipophilic substituents at the 7 position have excellent activity in the inhibition of topoisomerase I and in in vitro and in vivo cancer therapy.
We have utilized a standard method for ascertaining the lipophilicity of a number of camptothecin analogs. This involves the solubility in methylene chloride. This solvent is an excellent solvent for fat-soluble compounds. As can be noted with only one exception, compounds with the 7-butyl substituent are considerably more soluble than those without this constituent. Thus camptothecin is soluble only to the extent of 0.6 mg/ml whereas 7-butyl-camptothecin has a solubility of 20 mg/ml. 10-Amino-camptothecin is soluble only to the extent of 0.2 mg/ml. Very unexpectedly, 7-butyl-10-amino-camptothecin is very soluble at 145 mg/ml. It is also conceivable that camptothecin analogs with 7-pentyl or 7-hexyl substituents or 7-cyclopentyl or 7-cyclohexyl substituents will have increased solubility.

| Compound | Solubility [µg/mL] | other results |
| --- | --- | --- |
| CCCCc1c2c(nc3cc4c(cc13)OCO4)-c1cc3c(c(=O)n1C2)COC(=O)[C@]3(O)CC [7-Butyl-10,11-MD-CPT] | 8500 (≈ 19000 µM) |  |
| CC[C@@]1(O)C(=O)OCc2c1cc1n(c2=O)Cc2c-1nc1cc3c(cc1c2-c1ccc(C)cc1)OCO3 [7-p-Tolyl-10,11-MD-CPT, 7-p-Tolyl-10,11-MD-20(S)-Camptothecin] | 4600 (≈ 9530 µM) |  |
| CCC(C)c1c2c(nc3ccccc13)-c1cc3c(c(=O)n1C2)COC(=O)C3(O)CC (centres unmarked) [7-(sec)Butyl-CPT] | 33000 (≈ 81600 µM) |  |
| CCC1(O)C(=O)OCc2c1cc1n(c2=O)Cc2cc3c([N+](=O)[O-])c4c(cc3nc2-1)OCO4 (centres unmarked) [9-Nitro-10,11-MD-CPT, reference compound] | 250 (≈ 572 µM) |  |
| CC[C@@]1(O)C(=O)OCc2c1cc1n(c2=O)Cc2cc3cc4c(cc3nc2-1)OCO4 [10,11-MD-CPT, 10,11-methylenedioxy-CPT, reference compound] |  | Solubility (Solubility in CH2Cl2): <8 µg/mL |
| CCC1(O)C(=O)OCc2c1cc1n(c2=O)Cc2cc3c(N)c4c(cc3nc2-1)OCO4 (centres unmarked) [9-Amino-10,11-MD-CPT, reference compound] | <20 |  |
| CC[C@@]1(O)C(=O)OCc2c1cc1n(c2=O)Cc2cc3cc(O)ccc3nc2-1 [Example 10-OH-CPT, 10-OH-CPT, reference compound] |  | Solubility (Solubility in CH2Cl2): <40 µg/mL |
| CC[C@@]1(O)C(=O)OCc2c1cc1n(c2=O)Cc2c-1nc1cc3c(cc1c2-c1ccc(Cl)cc1)OCO3 [7-p-Chlorophenyl-10,11-MD-CPT, 7-p-Chlorophenyl-10,11-MD-20(S)-Camptothecin] | 6300 (≈ 12500 µM) |  |
| 7-Butyl-9-methyl-CPT | 180 |  |
| CCCCc1c2c(nc3ccc(OC)cc13)-c1cc3c(c(=O)n1C2)COC(=O)C3(O)CC (centres unmarked) [7-Butyl-10-methoxy-CPT] | 2000 (≈ 4600 µM) |  |
| CCC1(O)C(=O)OCc2c1cc1n(c2=O)Cc2cc3cc4c(cc3nc2-1)OCCO4 (centres unmarked) [10,11-ED-CPT, reference compound] | 200 (≈ 492 µM) |  |
| CC[C@@]1(O)C(=O)OCc2c1cc1n(c2=O)Cc2cc3cc(N)ccc3nc2-1 [Example 10-Amino-CPT, 10-Aminocamptothecin, reference compound] | 200 (≈ 550 µM) | solubility in methylene chloride: 200 µg/mL (≈ 550 µM) |
| CC[C@@]1(O)C(=O)OCc2c1cc1n(c2=O)Cc2c-1nc1cc3c(cc1c2-c1ccc(F)cc1)OCO3 [7-p-Fluorophenyl-10,11-MD-CPT, 7-p-Fluorophenyl-10,11-MD-20(S)-Camptothecin] | 2550 (≈ 5240 µM) |  |
| CCCCc1c2c(nc3ccccc13)-c1cc3c(c(=O)n1C2)COC(=O)C3(O)CC (centres unmarked) [Example 7-Butyl-CPT, 7-butyl-camptothecin] | 20000 (≈ 49400 µM) | solubility in methylene chloride: 20000 µg/mL (≈ 49400 µM) |
| 7-Benzyl-10,11-CPT | 1800 |  |
| CC[C@@]1(O)C(=O)OCc2c1cc1n(c2=O)Cc2c-1nc1cc3c(cc1c2Cc1ccccc1)OCO3 [7-Benzyl-10,11-MD-CPT, 7-Benzyl-10,11-MD-20(S)-Camptothecin] | 1800 (≈ 3730 µM) |  |
| CC[C@@]1(O)C(=O)OCc2c1cc1n(c2=O)Cc2cc3c(N)cccc3nc2-1 [Example 9-Amino-CPT, 9-Amino-CPT, reference compound] | <30 |  |
| CC[C@@]1(O)C(=O)OCc2c1cc1n(c2=O)Cc2cc3ccccc3nc2-1 [Camptothecin] |  | Solubility (Solubility in CH2Cl2): 600 µg/mL (≈ 1720 µM); Solubility (organic solvent or mixture, methylene chloride, read-out: solubility in methylene chloride): 600 µg/mL (≈ 1720 µM) |
| CCCCc1c2c(nc3ccc(O)cc13)-c1cc3c(c(=O)n1C2)COC(=O)[C@]3(O)CC [7-Butyl-10-OH-CPT] | <50 |  |
| CCC1(O)C(=O)OCc2c1cc1n(c2=O)Cc2cc3c(C)cccc3nc2-1 (centres unmarked) [Example 9-Methyl-CPT, 9-Methyl-CPT, reference compound] | 100 (≈ 276 µM) |  |
| CCCCc1c2c(nc3ccc(N)cc13)-c1cc3c(c(=O)n1C2)COC(=O)[C@]3(O)CC [7-Butyl-10-Amino-CPT, 7-n-Butyl-10-Amino-20(S)-Camptothecin] | 145000 (≈ 346000 µM) |  |
| CCCCc1c2c(nc3cc4c(cc13)OCCO4)-c1cc3c(c(=O)n1C2)COC(=O)C3(O)CC (centres unmarked) [7-Butyl-10,11-ED-CPT] | 7000 (≈ 15100 µM) |  |
| CC[C@@]1(O)C(=O)OCc2c1cc1n(c2=O)Cc2cc3cc(OC)ccc3nc2-1 [10-Methoxy-CPT, reference compound] | 3000 (≈ 7930 µM) |  |

— patent publication US7067666B2, “7-substituted camptothecin and camptothecin analogs and methods for producing the same” (priority 2003, dated 2006)
